According to US20120321694A1, “COMPOSITIONS AND USES” (priority 2010, published 2012):
Where no end group is shown, it is not given here.

Legend:
APPSwe/PS1 mice = assay: T-water maze; format: in vivo; conditions: for T-water maze, spatial memory: Example 21, twelve weekly injections, 3D MPL 50 μg, CRX527 20 μg, CRX601 20 μg i.p., AS01B 1/10th human dose i.m., vs non treated, FIG. 24
Experimental: Five groups of APPSwe/PS1 mice received one a week for a period of 12 weeks the following treatment: • Gr1: APPSwe/PS1+NaCl 0.9% n(=20), i.p. injections • Gr4: APPSwe/PS1+CRX527 (20 μg/mouse, 130 μl, n=10), i.p. injections • Gr5: APPSwe/PS1+CRX601 (20 μg/mouse, 130 μl, n=10), i.p. injections • Gr6: APPSwe/PS1+3D MPL (50 μg/mouse, 130 μl, n=10), i.p. injections • Gr8 APPSwe/PS1+AS15 ( 1/10th of human dose, 50 μl, n=10), i.m. injections • Gr9: APPSwe/PS1+AS01B ( 1/10th of human dose, 50 μl, n=10), i.m. injections
Mice were tested during the “light on” phase of the day. Behavioral experimenter was blinded to the genetic and treatment status of animals. To assess hippocampal-dependent spatial learning and memory, mice were trained in the T-water maze task. In this paradigm, we evaluate the mouse's ability to remember the spatial location of submerged platform. The T-maze apparatus (length of stem, 64 cm; length of arms, 30 cm; width, 12 cm; height of walls, 16 cm) was made of clear fiberglass and filled with water (23±1° C.) at a height of 12 cm. A platform (11×11 cm) was placed at the end of the target arm and was submerged 1 cm below the surface. The acquisition phase allows to evaluate animals for left-right spatial learning. During the first two trials, platforms were placed on each arms of the maze to test the spontaneous turning preference of the mouse. After these two trials, the least chosen arm was reinforced by the escape platform. The mice were placed in the stem of the T-maze and choose to swim either left or right until they found the submerged platform and escape to it, to a maximum of 60 s. After reaching the platform, the mice remained on it for 20 s and then were immediately placed back in the maze. […] Repeated trials were presented on the same day up to a maximum of 48 trials. A rest period of at least 10-15 min intervened between each block of 10 trials. A mouse was considered to have learned the task when it made no errors in a block of five consecutive trials. The reversal learning phase was then conducted 48 h later. During this phase, the same protocol was repeated, except that the mice were trained to find the escape platform on the opposite side to that on which they had learned on acquisition phase. The number of trials to reach the criterion (five of five correct choices made on consecutive trials) was measured as well as the latency to find the escape platform.

[1] = test system: CD11b+ peripheral blood monocytes; assay: Ex vivo uptake assay of Aβ1-42 by peripheral blood monocytes; format: cell-based, C57BL/6 mice
Experimental: (§1) Red blood cell lysis was performed twice on pooled blood with Ammonium Chloride-based Buffer (Sigma, Steinheim, Germany) and cells were counted with the EasyCount™ System (Immunicon).
(§2) Cells were finally washed twice and fixed for 15 min. with a 2% paraformaldehyde solution in PBS. FMOs controls were always included in the assays.
as §1

[2] = test system: Lineage- CD11b+ monocytes in peripheral blood; assay: Monocyte analysis and counting after adjuvant injection in mice; format: in vivo, C57BL/6 mice
Experimental: (§3) 24-Hours after injection of the TLR adjuvants, peripheral blood was drawn from C57BL/6 mice via cardiac puncture with lithium-heparin as anticoagulant. Red blood cell lysis was performed twice on pooled blood with Ammonium Chloride-based Buffer (Sigma, Steinheim, Germany) and cells were counted with the EasyCount™ System (Immunicon). […] Cells were finally washed three times and fixed for 15 min. with a 2% paraformaldehyde solution in PBS. Fluorescence minus one (FMO) controls were always included in the assays for fluorescent compensation setting. Samples were acquired on a flow cytometer (BD FACSCanto II) and data analyzed with the FACSDiva software (BD Biosciences). Monocytes were identified by their Side/Forward scatter properties and gated as CD3-/CD45R/B220-/Ly-6G-/NK1.1-(Lineage-)/CD11b+ cells. CD11b+ monocyte frequency was reported as a percentage of the total cells excluding debris.
as §3, with “24 hours” for “24-Hours”, “each immunomodulator,” for “the TLR adjuvants,”, “min” for “min.”, “monocytes” for “monocyte”
(§4) Cells were finally washed twice and fixed for 15 min. with a 2% paraformaldehyde solution in PBS. FMOs controls were always included in the assays. Samples were acquired on a flow cytometer (BD FACSCanto II) and data analyzed with the FACSDiva software (BD Biosciences). Monocytes were identified and counted by their Side/Forward scatter properties, excluding debris and gated as CD3-/CD45R/B220-/Ly-6G-/NK1.1-(Lineage-)/CD11b+ cells.

[3] = test system: CD11b+ peripheral blood monocytes; assay: In vivo uptake assay of Aβ42 after immunization or passive immunotherapy; set-up: species or system C57BL/6 mice; conditions: FIG. 22
Experimental: as §2, §4

[4] = test system: human microglial cell line CHME; assay: Phagocytosis of Aβ1-42 by CHME microglial cell line; format: cell-based; conditions: FIG. 18
Experimental: Phagocytosis of beta-amyloid 1-42 peptide by the human microglial cell line CHME was observed after the addition of TLR2 agonist containing adjuvants Protollin and Pam3CysLip peptide. […] The synthetic peptide sequence of the Pam3Cys Lip peptide is described herein: Pam3Cys—SQ EPAAPAAEAT PAAEAP. Protollin was used at concentration 1 ug per ml based on the LPS content from Shigella flexneri. Pam3Cys lip peptide was used at concentration of 5 ug per ml of the pure tri-palmitoylated peptide.
Additionally, cells were imaged using 42 HiLyte 488 Fluo (Anaspec, Inc.) at 2 ug per ml in DMEM complete media (Invitrogen). Lysotracker red staining was performed and slides were mounted and co-stained with DAPI to show the nucleus (blue). […] Lysotracker red reagent was purchased from Invitrogen and used as manufacturer recommendations.

`CCCCCCCCCCC[C@H](CC(=O)N[C@H]1[C@H](OC[C@H](NC(=O)C[C@@H](CCCCCCCCCCC)OC(=O)CCCCCCCCC)C(=O)O)O[C@H](CO)[C@@H](OP(=O)(O)O)[C@@H]1OC(=O)C[C@@H](CCCCCCCCCCC)OC(=O)CCCCCCCCC)OC(=O)CCCCCCCCC` [CRX527] was tested, and the “T-water maze, spatial memory” value (APPSwe/PS1 mice) was “spatial memory improvement” and the “T-water maze, spatial memory” value (APPSwe/PS1 mice; listed as CRX 527) was “significant improvements in behaviour”.
`CCCCCCCCCCC[C@H](CC(=O)N[C@H]1[C@H](OC[C@H](NC(=O)C[C@@H](CCCCCCCCCCC)OCCCCCCCCCC)C(=O)O)O[C@H](CO)[C@@H](OP(=O)(O)O)[C@@H]1OC(=O)C[C@@H](CCCCCCCCCCC)OCCCCCCCCCC)OCCCCCCCCCC` [CRX601] was tested, and the “ex vivo uptake of Aβ42 by peripheral blood monocytes” value ([1]; i.m. AS01B mouse full dose (5 ug per mouse) or CRX601 2 μg, vs PBS group, FIG. 14) was “uptake an higher amount of Aβ42”, the “dose of maximum monocyte response” value ([2]; single i.m., 0.2-20 ug/mouse, FIG. 12) was 10 µg and the “dose enough to trigger an increase of the monocyte count” value ([2]; single i.m., 24 hrs, compared to PBS, FIG. 12) was 1 µg. The “effect on monocyte count at 20 μg dose” value ([2]; single i.m., FIG. 12) was “down modulated”, the “antibody-mediated Aβ uptake in peripheral blood monocytes” value (“antibody-mediated Aβ uptake” for short) ([3]; CRX601 at 20 ug when combined with AS03 emulsion) was “partially quenched” and the “antibody-mediated Aβ uptake” value ([3]; CRX601 at 20 ug, single i.m., plus 15 ug 2E7) was “triggers highest Aβ uptake”. For the same compound, the “antibody-mediated Aβ uptake” value ([3]; single i.m. injection of different doses plus 15 ug 2E7, Aβ Fluor i.v. 24 hr later) was “Dose-response observed”, the “T-water maze, spatial memory” value (APPSwe/PS1 mice) was “spatial memory improvement” and the “T-water maze, spatial memory” value (APPSwe/PS1 mice; listed as CRX 601) was “significant improvements in behaviour”. For the same compound, the “T-water maze, cognitive functions” value (APPSwe/PS1 mice; Example 22, i.m., 12× weekly from 3 months old, CRX601 2 μg, CRX601 2 ug in AS03, 3D MPL 5 ug, AS01B 1/10 human dose, vs PBS, unpaired t-tests, FIG. 27A) was “significant improvement of their cognitive functions”.
For QS21 [reference compound], the “ex vivo Aβ42 uptake by peripheral blood monocytes” value ([1]; i.m. injection, 24 hrs, compared to PBS, QS21 (5 ug), liposomal MPL (5 ug) or MPL (5 ug), FIG. 20) was “does not promote Aβ uptake”, the “number of monocytes, of total peripheral white blood cells” value ([2]; 24 hrs after single i.m. injection (5 μg QS21), FIG. 19A) was 9.1% and the “activated Ly6C+ monocytes” value ([2]; 24 hrs after single i.m. injection (5 μg QS21), FIG. 19B) was 75%.
For “Pam3Cys—SQ EPAAPAAEAT PAAEAP (Pam3Cys-SQEPAAPAAEATPAAEAP) [Pam3CysLip peptide, TLR2 agonist, tri-palmitoylated peptide from Neisseria meningitidis strain 8047]”, the “phagocytosis of beta-amyloid 1-42 peptide” value ([4]; 5 ug per ml, pre-incubation 18 hrs) was 86 % of cells and the amyloid phagocytic activity ([4]; Pam3CysLip peptide 5 ug per ml, Protollin 1 ug per ml (LPS content), compared to PBS) was “higher amyloid phagocytic activity”.
